Source: US8669260B2, “Ketoconazole-derivative antagonist of human pregnane X receptor and uses thereof” (priority 2008, dated 2014)
Read-outs that look alike come from different tables or passages of the source.

Assays:
[1] = tested on: Caco-2, LS174T, SKOV3 and CRL cell lines; assay: Drug induced cytotoxicity by MTT assay in cancer and fibroblast cell lines
HepG2 cells = conditions: for HepG2 cell proliferation (in words): 48 hours
PXR [2] = target: T1, PXR (Homo sapiens, UniProt O75469); assay: cell-based; design: expressed in transfected cells; host or cells: HepG2
T1 sequence (O75469 1-434): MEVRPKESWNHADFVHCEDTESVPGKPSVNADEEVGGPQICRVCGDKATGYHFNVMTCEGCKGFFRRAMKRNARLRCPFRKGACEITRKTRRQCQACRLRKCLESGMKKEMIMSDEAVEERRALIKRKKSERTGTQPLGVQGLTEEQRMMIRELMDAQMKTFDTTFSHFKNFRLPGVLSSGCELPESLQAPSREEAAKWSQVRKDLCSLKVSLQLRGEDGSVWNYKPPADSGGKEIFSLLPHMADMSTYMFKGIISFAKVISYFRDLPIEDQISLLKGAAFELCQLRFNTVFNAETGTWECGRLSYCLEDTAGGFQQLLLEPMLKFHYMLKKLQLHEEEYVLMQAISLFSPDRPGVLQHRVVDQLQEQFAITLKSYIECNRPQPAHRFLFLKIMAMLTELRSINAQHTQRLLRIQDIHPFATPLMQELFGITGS

PXR [3] = target: T1, PXR; assay: PXR transactivation assay (activation mode), HepG2 cells transfected with human PXR-pcDNA3 and CYP3A-Luc; type: cell-based; design: expressed in transfected cells; host or cells: HepG2
SKOV-3 cells [4] = assay: Chemotherapeutic sensitivity assay in SKOV-3 cells with and without rifampicin
LXR = conditions: known potency; cited from earlier work
[5] = tested on: PXR target genes in SKOV-3 cells; assay: Quantitative RT-PCR of PXR target genes in SKOV-3 cells; type: cell-based; conditions: 0-1.0 μM
SKOV-3 cells [6] = conditions: MTT; 48-96 hr exposure (T1317: 48 hours, normalized to GSK1385)
CYP3A4 = CYP3A4 (Homo sapiens, UniProt P08684); assay: Time-dependent CYP3A4 inhibition assay in human liver microsome (midazolam 1-hydroxylase); conditions: for Maximum % Inhibition, midazolam-1-hydroxylase activity / IC50: human liver microsome; for IC50: read-out: IC50, midazolam-1-hydroxylase activity
Procedure: Briefly, test articles were incubated in a reaction mixture containing 5 μM midazolam, 0.1 mg/ml human liver microsomes and 1 mM NADPH for 5 min. The enzyme reaction was stopped by adding an equal volume of quench solution (H2O:acetonitrileformic-acid=94:5:1) containing ^13C-1-hydroxymdiazolam (0.1 μM final) as the internal standard. In order to test time-dependency of CYP3A4 inhibition, an identical reaction was started without midazolam and the reaction mixture was incubated for 30 min. After the pre-incubation, 5 μM midazolam was added and incubated for 5 min before the quench solution was added. The samples were centrifuged at 1,500 RPM for 15 min to precipitate denatured microsomal proteins. […] A percent CYP3A4 inhibition (% Inh) was calculated by the following equation:
[formula] CDMSO and Ccompound are concentrations of 1-hydroxymidazolam in the vehicle control and a compound tested, respectively. A plot of concentration-% Inh was then created and from the plot, IC50 and Maximum % Inhibition were reported.

PXR [7] = target: T1, PXR; conditions: known potency; cited from earlier work
LS174T cells = assay: LS174T cell growth (trypan blue counting, doubling time); conditions: within 72 hours
SKOV-3 xenografts = assay: In vivo SKOV-3 xenograft studies in NOD.SCID mice
Procedure: HepG2 cells were processed into slides using histogel (Richard-Allan Scientific, Kalamazoo, Mich.). The slides were placed in a 59° C. oven in the morning of the experiments. For cells and tissue specimens, after de-waxing and re-hydrating the slides, slides were placed in a sodium citrate solution, pH 6.0 (Vector labs, Burlingame, Calif.) for 20 minutes. […] Cell sections were then immunostained with the biotin-streptavidin system from Vector Labs per manufacturer's instructions. Institutional IRB approval (#2007-902) was obtained for use of tissue sections from patients with serous papillary ovarian carcinoma and benign ovaries.
2×10^6 SKOV-3 cells were implanted by subcutaneous route into both flanks of NOD.SCID mice. On day 35 after inoculation, the mean (±SD) (n=32) volume of implanted tumor was 8 mm^3 (±3.5) (range: 4.3-18.3). […] Control intravenous injections consisted of 30% polyethylene glycol. The tumor volume was calculated twice a week using the following formula: Length (mm)×[Width (mm)]^2×π/6 (25).

[8] = non-linear regression, activation by 10 μM rifampicin, read-out: PXR Inhibition IC50

CYP3A4, sequence (P08684 whole entry): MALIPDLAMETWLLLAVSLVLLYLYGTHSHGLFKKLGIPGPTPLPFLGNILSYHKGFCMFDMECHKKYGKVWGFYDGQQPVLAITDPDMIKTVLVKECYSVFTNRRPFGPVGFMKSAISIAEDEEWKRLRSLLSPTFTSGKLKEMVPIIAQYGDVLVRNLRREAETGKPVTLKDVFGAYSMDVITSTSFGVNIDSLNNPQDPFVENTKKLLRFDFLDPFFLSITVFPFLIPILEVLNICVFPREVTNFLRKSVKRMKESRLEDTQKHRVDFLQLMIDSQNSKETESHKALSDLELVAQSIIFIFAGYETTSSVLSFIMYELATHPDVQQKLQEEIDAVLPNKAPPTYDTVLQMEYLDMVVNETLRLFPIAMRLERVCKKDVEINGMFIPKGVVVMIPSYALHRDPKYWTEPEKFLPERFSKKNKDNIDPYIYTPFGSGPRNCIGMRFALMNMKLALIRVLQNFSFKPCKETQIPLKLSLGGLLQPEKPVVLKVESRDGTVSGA

CC(=O)N1CCN(c2ccc(OCC3COC(Cn4ccnc4)(c4ccc(Cl)cc4Cl)O3)cc2)CC1 (centres unmarked) [Ketoconazole, ketoconazole]
viability ([1]; across all cell lines tested, effective concentration range for PXR inhibition (two times the IC50 ~30 μM), 48 hours): 65-75% | HepG2 cell proliferation (in words) (HepG2 cells; combination of ketoconazole and rifampicin): cell proliferation is clearly decreased | non-viable cells (HepG2 cells; HepG2, 48 hours, 50 μM): > 35% | IC50 (PXR [2]): 18.7 µM | inhibition of rifampicin-mediated PXR activation (in words) (PXR [2]): inhibitor of activated PXR | EC50 (PXR [3]): > 50 µM | PXR activation (in words) (PXR [3]; PXR transactivation assay): weak activator of PXR

CCc1c2c(nc3ccc(O)cc13)-c1cc3c(c(=O)n1C2)COC(=O)[C@]3(O)CC [SN-38]
resistance index induced by rifampicin (SKOV-3 cells [4]; IC50(R)/IC50 (no R)): ~17.5 | IC50 (SKOV-3 cells [4]; read-out: IC50(R), SKOV-3 cells, with rifampicin): ~3.5 µM | IC50 (SKOV-3 cells [4]; read-out: IC50 (no R), SKOV-3 cells, without rifampicin): ~0.2 µM

O=S(=O)(c1ccccc1)N(CC(F)(F)F)c1ccc(C(O)(C(F)(F)F)C(F)(F)F)cc1 [T0901317]
EC50 (LXR): […] | PXR target gene induction (in words) [5]: same profile of gene expression | SKOV-3 cell survival (in words) (SKOV-3 cells [6]): significant increase in cell survival

CC(=O)N1CCN(c2ccc(OC[C@H]3CO[C@@](C)(c4ccc(Cl)cc4Cl)O3)cc2)CC1 [UCL2158H]
cytotoxicity (in words) ([1]; epithelial cells, concentration range up to 100 μM, MTT): less cytotoxic than ketoconazole | Maximum % Inhibition, midazolam-1-hydroxylase activity (CYP3A4; +preincubation (30 min)): 67% | time-dependency of CYP3A4 inhibition (CYP3A4; IC50 with vs without 30 min preincubation): no time-dependency | IC50 (CYP3A4; +preincubation (30 min)): 19.6 µM | IC50 (CYP3A4; −preincubation): 10.8 µM | Maximum % Inhibition, midazolam-1-hydroxylase activity (CYP3A4; −preincubation): 80% | Maximum % Inhibition Observed (PXR [2]): 109% | inhibition of rifampicin-mediated PXR activation (in words) (PXR [2]; PXR transactivation assay): most potent inhibitors of PXR | IC50 (PXR [2]; [8]): 14.6 µM | PXR Inhibition Imax (PXR [2]; non-linear regression, maximal inhibition of PXR activation with 10 μM rifampicin): 128% | Maximum % Activation Observed (PXR [3]; PXR transactivation relative to 10 μM rifampicin, HepG2, 24 h, 50 μM-2.5 nM): 10% | EC50 (PXR [3]; non-linear regression analysis, read-out: PXR Activation EC50): > 50 µM

C/C(=C\c1csc(C)n1)[C@@H]1C[C@@H]2O[C@]2(C)CCC[C@H](C)[C@H](O)[C@@H](C)C(=O)C(C)(C)[C@@H](O)CC(=O)N1 [ixabepilone]
% increased survival relative to ixabepilone without rifampicin (SKOV-3 cells [4]; SKOV-3, ixabepilone 0.1-50 μM in the presence of rifampicin, average): ~20%

CC(=O)O[C@H]1C(=O)[C@@]2(C)[C@H]([C@H](OC(=O)c3ccccc3)[C@]3(O)C[C@H](OC(=O)[C@H](O)[C@@H](NC(=O)c4ccccc4)c4ccccc4)C(C)=C1C3(C)C)[C@]1(OC(C)=O)CO[C@@H]1C[C@@H]2O [paclitaxel]
IC50 (SKOV-3 cells [4]; Homo sapiens, SK-OV-3, read-out: IC50 with rifampicin (R)): ~40 µM | IC50 (SKOV-3 cells [4]; Homo sapiens, SK-OV-3, read-out: IC50 without rifampicin (no R)): ~4 µM | resistance index induced by rifampicin (SKOV-3 cells [4]; IC50 with rifampicin / IC50 without rifampicin): ~10 fold

rifampicin
EC50 (PXR [7]): 1 to 2 µM | HepG2 cell proliferation (in words) (HepG2 cells; single agent): concentration dependent proliferation of cells | IC50 (PXR [2]; [8]): > 50 µM | growth rate constant (k=ln 2/g) (LS174T cells; PXR knockdown LS174T cells): ~0.008 hr^−1 | growth rate constant (k=ln 2/g) (LS174T cells; vector-transfected LS174T cells): ~0.02 hr^−1 | Ki67 stained cells, mean (SEM) (SKOV-3 xenografts; SKOV-3 xenografts, NOD.SCID mice, 40 mg/kg/day i.v., control 577.0 (21), p<0.00001): 937.0 (37) | tumor size at necropsy and tumor weight (in words) (SKOV-3 xenografts; day 60, versus control): significantly larger tumors | tumor volumes (in words) (SKOV-3 xenografts; days 45-60, versus controls): significantly higher | effect on cytotoxicity of ixabepilone, paclitaxel and SN-38 (in words) (SKOV-3 cells [4]; SKOV-3 cells, rifampicin 20 μM): significantly decreased the cytotoxicity
